Test results: ChEMBL document CHEMBL1201862, “PubChem BioAssay data set” (2004)
Calls of active or inactive are those of the source.

Key:
[1] = biological target: T1, X-box-binding protein 1 (Homo sapiens, UniProt P17861); type: functional, Cricetulus griseus;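 also: confirmatory dose-response counter-screen serving a CHOP assay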
T1 sequence (P17861 whole entry): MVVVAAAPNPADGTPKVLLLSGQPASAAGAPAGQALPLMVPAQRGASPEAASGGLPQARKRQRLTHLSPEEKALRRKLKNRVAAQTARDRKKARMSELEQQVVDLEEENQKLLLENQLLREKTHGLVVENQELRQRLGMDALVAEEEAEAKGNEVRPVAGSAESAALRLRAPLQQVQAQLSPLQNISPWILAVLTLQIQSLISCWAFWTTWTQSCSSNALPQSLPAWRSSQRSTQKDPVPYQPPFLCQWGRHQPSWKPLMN

[2] = biological target: T2, Bcl-2-like protein 10 (Homo sapiens, UniProt Q9HD36); experiment: Bcl-B/TR3 peptide binding disruption – biochemical, fluorescence polarization, FITC-TR3 peptide, selectivity assay for Bfl-1 inhibitor project, primary screen (AID 748);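 also: fluorescence polarization from a fluorescein-labelled TR3 peptide binding purified Bcl-B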
T2 sequence (Q9HD36 whole entry): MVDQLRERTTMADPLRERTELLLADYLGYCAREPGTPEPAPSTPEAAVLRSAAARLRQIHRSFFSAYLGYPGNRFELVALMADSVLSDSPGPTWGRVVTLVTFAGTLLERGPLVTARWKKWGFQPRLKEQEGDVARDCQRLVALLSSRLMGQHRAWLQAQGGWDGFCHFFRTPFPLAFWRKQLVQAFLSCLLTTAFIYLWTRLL

[3] = biological target: Estrogen receptor beta (Homo sapiens, UniProt Q92731); experiment: blockers of SRC-3 recruitment to ERβ – biochemical, ELISA, streptavidin-HRP readout, orthogonal assay, confirmation (AID 1060)
[4] = biological target: Intestinal-type alkaline phosphatase (Homo sapiens, UniProt P09923); experiment: Dose Response confirmation of uHTS hits from a small molecule inhibitors of human intestinal alkaline phosphatase via a luminescent assay. [Related pubchem assays (depositor defined):AID2544, AID2574]; type: functional
[5] = biological target: Cytochrome P450 2D6 (Homo sapiens, UniProt P10635); experiment: qHTS Assay for Inhibitors and Substrates of Cytochrome P450 2D6. [Related pubchem assays: 410 ]; type: ADME; conditions: read-out: Potency
[6] = biological target: Cytochrome P450 3A4 (Homo sapiens, UniProt P08684); conditions: Potency;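 also: confirmatory qHTS run detecting inhibitors and substrates of CYP3A4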
[7] = biological target: Cytochrome P450 2C9 (Homo sapiens, UniProt P11712); conditions: Potency
[8] = biological target: T3, Estrogen receptor (Homo sapiens, UniProt P03372);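 also: potency for inhibiting coactivator peptide recruitment to the receptor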
T3 sequence (P03372 whole entry): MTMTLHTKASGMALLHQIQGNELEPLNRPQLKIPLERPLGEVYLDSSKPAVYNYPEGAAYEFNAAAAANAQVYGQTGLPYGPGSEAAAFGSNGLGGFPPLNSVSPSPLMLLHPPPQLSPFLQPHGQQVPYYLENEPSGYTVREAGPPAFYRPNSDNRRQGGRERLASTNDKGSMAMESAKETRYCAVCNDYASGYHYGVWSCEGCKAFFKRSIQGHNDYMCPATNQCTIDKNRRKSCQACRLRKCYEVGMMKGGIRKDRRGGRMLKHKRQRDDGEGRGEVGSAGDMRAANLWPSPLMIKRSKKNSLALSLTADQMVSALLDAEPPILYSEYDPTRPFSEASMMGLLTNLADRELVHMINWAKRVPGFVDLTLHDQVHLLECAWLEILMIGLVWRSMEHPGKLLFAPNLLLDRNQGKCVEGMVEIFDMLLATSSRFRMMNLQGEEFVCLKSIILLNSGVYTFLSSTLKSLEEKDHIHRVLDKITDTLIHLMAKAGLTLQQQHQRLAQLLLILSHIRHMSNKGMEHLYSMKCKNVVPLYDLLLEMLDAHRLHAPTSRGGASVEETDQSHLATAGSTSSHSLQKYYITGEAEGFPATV

[9] = biological target: NS3 (Hepatitis C virus, UniProt A3EZJ3); experiment: PubChem AID 2173; parameters: species or system Hepacivirus hominis
[10] = biological target: Genome polyprotein (dengue virus type 2, UniProt P29990); experiment: flavivirus cap methylation enzyme inhibition – biochemical, confirmation dose response, primary screen (AID 588689); type: functional
[11] = biological target: Large T antigen (Simian virus 40, UniProt P03070); type: functional, Betapolyomavirus macacae;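 also: Confirmatory-stage PubChem screen for compounds that inhibit SV40 T antigen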
[12] = biological target: T4, ORF 73 (Human herpesvirus 8, UniProt O40947); experiment: KSHV LANA DNA-binding disruption – biochemical, fluorescence polarization, cherry-picked samples, dose response (AID 504725); parameters: species or system Human gammaherpesvirus 8;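 also: fluorescence polarization of a labeled DNA duplex reporting LANA DNA binding; potency is for inhibitors that block LANA binding to the DNA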
T4 sequence (O40947 whole entry): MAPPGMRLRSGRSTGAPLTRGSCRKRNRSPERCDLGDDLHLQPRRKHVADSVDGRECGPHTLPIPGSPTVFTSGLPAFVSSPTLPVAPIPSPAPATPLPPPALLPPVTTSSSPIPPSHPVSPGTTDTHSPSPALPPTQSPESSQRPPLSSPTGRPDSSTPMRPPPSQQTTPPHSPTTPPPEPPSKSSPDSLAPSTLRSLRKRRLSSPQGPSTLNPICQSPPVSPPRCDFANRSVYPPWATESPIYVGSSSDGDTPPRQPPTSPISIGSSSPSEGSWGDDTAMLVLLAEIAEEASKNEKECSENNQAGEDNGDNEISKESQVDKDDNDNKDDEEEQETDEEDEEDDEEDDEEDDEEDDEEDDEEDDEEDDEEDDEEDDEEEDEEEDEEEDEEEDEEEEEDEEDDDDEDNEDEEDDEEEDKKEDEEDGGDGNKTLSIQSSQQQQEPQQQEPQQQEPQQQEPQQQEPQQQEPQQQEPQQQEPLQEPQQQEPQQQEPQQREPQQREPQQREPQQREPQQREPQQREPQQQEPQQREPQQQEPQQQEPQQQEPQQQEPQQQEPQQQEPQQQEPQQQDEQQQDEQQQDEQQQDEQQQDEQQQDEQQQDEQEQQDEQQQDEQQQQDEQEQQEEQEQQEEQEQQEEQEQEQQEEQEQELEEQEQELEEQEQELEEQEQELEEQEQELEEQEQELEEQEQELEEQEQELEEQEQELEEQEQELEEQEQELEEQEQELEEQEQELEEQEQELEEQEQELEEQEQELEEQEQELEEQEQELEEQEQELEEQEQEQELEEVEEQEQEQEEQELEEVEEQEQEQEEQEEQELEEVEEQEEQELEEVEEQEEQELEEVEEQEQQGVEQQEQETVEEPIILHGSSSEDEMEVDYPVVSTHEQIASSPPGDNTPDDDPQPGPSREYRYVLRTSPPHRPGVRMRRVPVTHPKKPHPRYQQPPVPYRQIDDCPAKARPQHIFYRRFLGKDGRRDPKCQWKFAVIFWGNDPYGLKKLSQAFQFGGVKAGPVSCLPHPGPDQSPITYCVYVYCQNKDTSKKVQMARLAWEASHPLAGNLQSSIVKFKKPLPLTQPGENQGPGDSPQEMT

[13] = biological target: Troponin, cardiac muscle (Homo sapiens, UniProt P19429+P45379+P63316); experiment: compounds desensitizing RTF to calcium – biochemical, fluorescence, cardiac regulated thin filaments, triplicate IC50, dose response (AID 504742); type: protein-complex assay
[14] = biological target: 26S proteasome non-ATPase regulatory subunit 14 (Homo sapiens, UniProt O00487); experiment: inhibition of proteasome subunit RPN11 – biochemical, fluorescence polarization, uHTS hits, confirmation (AID 602368); type: functional
[15] = biological target: 72 kDa type IV collagenase (Homo sapiens, UniProt P08253); experiment: Dose Response validation of uHTS RPN11 inhibitor hits using a MMP-2 Fluorescence assay.; type: functional
[16] = biological target: Prothrombin (Bos taurus, UniProt P00735); experiment: thrombin protease inhibitors – biochemical, fluorescence polarization, uHTS hits, dose response (AID 602369); type: functional
[17] = THP-1 cell cytotoxicity, dose response, cytotoxicity control for non-replicating M. tuberculosis project (AID 489025); type: functional
[18] = HepG2 cell cytotoxicity, dose response, cytotoxicity control for non-replicating M. tuberculosis project (AID 489018); type: functional; conditions: Mycobacterium tuberculosis
[19] = Vero E6 cell cytotoxicity, dose response, cytotoxicity control for non-replicating M. tuberculosis project, secondary assay (AID 492998); type: functional, VeroE6; conditions: Vero C1008
[20] = cells; type: functional
[21] = tested on: INS1; experiment: INS-1E survival protection against cytokine death – cell-based, luminescence, retest, dose response (AID 449756); type: functional; conditions: Rattus norvegicus;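 also: cell death triggered by IL-1 beta plus TNF-alpha plus IFN-gamma mixture; protective hits raise ATP signal compared with cytokine alone wells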

With `O=C(Oc1ccc(O)cc1)C12CC3CC(CC(C3)C1)C2` the “Absolute IC50 (XBP1)” value [1] was 10 µM.

For `CCN1CCN(c2ccc(NC(=O)c3cccc4ncccc34)cc2)CC1`, the IC50 [2] was 50.1 µM (inactive) and the IC50 [3] was 0.121 µM (not active).

For `O=C(NC1CCCCCC1)c1ccc(-n2cnnc2)cc1`, the IC50 [4] was > 100 µM (inactive).

In the case of `C=CCc1cccc(C2C(C)CCC3C(=O)N4C(CCC(C)C4c4cccc(CC=C)c4)C(=O)N32)c1` (centres undefined), the AC50 [5] is reported as 3.16 µM (inconclusive), the AC50 [6] is reported as 0.2 µM (inconclusive) and the AC50 [7] is reported as 3.98 µM (inconclusive).

In the case of `Cc1ccccc1NC(=O)CSc1nnc(-c2ccco2)c(-c2ccco2)n1`, the IC50 [2] is reported as 27.3 µM (active), the IC50 [8] is reported as 14.9 µM (active) and the IC50 [9] is reported as 8.62 µM (active). For the same compound, the IC50 [3] was 1.98 µM (not active) and the IC50 [10] was 64.7 µM (active).

With `O=C(O)C(Cc1ccccc1)N1C(=O)/C(=C/C=C/c2ccco2)SC1=S` (centres undefined) the IC50 [11] was 33.5 µM (active), the AC50 [12] was 108 µM (active) and the IC50 [13] was > 71.5 µM (inactive). For the same compound, the IC50 [14] was 7.33 µM (active), the IC50 [15] was 0.947 µM (active) and the IC50 [16] was 75.3 µM (active).

In the case of `C/C(N)=C(/C#N)C(=O)CSc1nc2ccccc2[nH]1`, the IC50 [2] is reported as 22.3 µM (active).

For `C/C(=N\NC(=O)c1ccccc1OCc1ccc(F)cc1)c1ccccn1`, the CC50 [17] was 0.765 µM (active), the CC50 [18] was 3.6 µM (active) and the CC50 [19] was 2.69 µM (active). For the same compound, the IC50 [20] was 3.02 µM (active) and the AC50 [21] was 1.83 µM (active).
